We go through 13 compounds from ChEMBL document CHEMBL1275509, “Plasmid-encoded carbapenem-hydrolyzing beta-lactamase OXA-48 in an imipenem-susceptible Klebsiella pneumoniae strain from Belgium” (2008).

In assay [1] the test system is Escherichia coli. The experiment in a line: Antibacterial activity against Escherichia coli J53 harboring plasmid-encoded beta-lactamase OXA-48 by Etest method in presence of beta-lactamase inhibitor clavulanic acid. The class given is functional.
Assay [2] deals with Escherichia coli. The experiment in a line: Antibacterial activity against Escherichia coli J53 by Etest method in presence of beta-lactamase inhibitor clavulanic acid. The class given is functional.
In assay [3] the test system is Klebsiella pneumoniae. The experiment in a line: Antibacterial activity against human urinary Klebsiella pneumoniae UCL-1 harboring plasmid-encoded beta-lactamase OXA-48 by Etest method. It counts as functional. The note with it: UCL-1, Urine.
The test system of assay [4] is Klebsiella pneumoniae. The experiment in a line: Antibacterial activity against Klebsiella pneumoniae 11978 harboring plasmid pA-1carrying beta-lactamase OXA-48 by Etest method. The class given is functional.
Assay [5] has as its system Escherichia coli. The assay is described as follows: Antibacterial activity against Escherichia coli J53 harboring plasmid pA-1carrying beta-lactamase OXA-48 by Etest method in presence of beta-lactamase inhibitor clavulanic acid. The class given is functional.
Assay [6] relates to Klebsiella pneumoniae. The experiment in a line: Antibacterial activity against Klebsiella pneumoniae 11978 harboring plasmid pA-1carrying beta-lactamase OXA-48 by Etest method in presence of beta-lactamase inhibitor clavulanic acid. The class given is functional.
In assay [7] the test system is Escherichia coli. The experiment in a line: Antibacterial activity against Escherichia coli J53 harboring plasmid pA-1carrying beta-lactamase OXA-48 by Etest method. The class given is functional.
Assay [8] concerns Escherichia coli. The assay is described as follows: Antibacterial activity against Escherichia coli J53 by Etest method. The class given is functional.
Assay [9] has as its system Escherichia coli. The experiment in a line: Antibacterial activity against Escherichia coli J53 harboring plasmid-encoded beta-lactamase OXA-48 by Etest method. It counts as functional.
Assay [10] concerns Klebsiella pneumoniae. The experiment in a line: Antibacterial activity against human urinary Klebsiella pneumoniae UCL-1 harboring plasmid-encoded beta-lactamase OXA-48 by Etest method in presence of beta-lactamase inhibitor clavulanic acid. The class given is functional. Particulars: UCL-1, Urine.
Assay [11] concerns the target Beta-lactamase OXA-48 (Klebsiella pneumoniae) (UniProt Q6XEC0). The assay is described as follows: Compound hydrolyzing activity of Klebsiella pneumoniae beta-lactamase OXA-48. The note with it: UCL-1.
The test system of assay [12] is Klebsiella pneumoniae. The assay is described as follows: Antibacterial activity against amoxicillin and amoxicillin-clavulanate resistant Klebsiella pneumoniae UCL-1 assessed as zone of inhibition by disk diffusion method. The class given is functional. On the technique in general: A growth-free zone around the sample is the usual read-out of agar diffusion tests.

The test system of assay [13] is Escherichia coli. The assay is described as follows: Antibacterial activity against Escherichia coli J53 by Etest method in presence of beta-lactamase inhibitor Tazobactam. The class given is functional.
Assay [14] concerns Klebsiella pneumoniae. The assay is described as follows: Antibacterial activity against Klebsiella pneumoniae 11978 harboring plasmid pA-1carrying beta-lactamase OXA-48 by Etest method in presence of beta-lactamase inhibitor Tazobactam. The class given is functional.
In assay [15] the test system is Klebsiella pneumoniae. The assay is described as follows: Antibacterial activity against human urinary Klebsiella pneumoniae UCL-1 harboring plasmid-encoded beta-lactamase OXA-48 by Etest method in presence of beta-lactamase inhibitor Tazobactam. It counts as functional. The note with it: UCL-1, Urine.
Assay [16] has as its system Escherichia coli. The assay is described as follows: Antibacterial activity against Escherichia coli J53 harboring plasmid pA-1carrying beta-lactamase OXA-48 by Etest method in presence of beta-lactamase inhibitor Tazobactam. It counts as functional.
For assay [17], the system named is Escherichia coli. The assay is described as follows: Antibacterial activity against Escherichia coli J53 harboring plasmid-encoded beta-lactamase OXA-48 by Etest method in presence of beta-lactamase inhibitor Tazobactam. The class given is functional.

In brackets after ≈: the same amount, converted by molar mass. Some results are limits rather than exact numbers.

Chain of Beta-lactamase OXA-48 (Klebsiella pneumoniae) (Q6XEC0 whole entry, the tested form may be a part): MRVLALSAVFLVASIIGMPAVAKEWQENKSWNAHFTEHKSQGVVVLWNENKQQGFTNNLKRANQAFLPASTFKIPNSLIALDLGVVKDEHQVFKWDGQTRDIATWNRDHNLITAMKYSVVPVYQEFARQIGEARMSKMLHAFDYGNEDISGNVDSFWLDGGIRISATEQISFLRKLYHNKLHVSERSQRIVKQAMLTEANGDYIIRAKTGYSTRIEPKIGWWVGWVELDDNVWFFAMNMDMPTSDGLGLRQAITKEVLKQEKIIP

Take `CC1(C)S[C@@H]2[C@H](NC(=O)[C@H](N)c3ccc(O)cc3)C(=O)N2[C@H]1C(=O)O` [AMOXICILLIN]: the MIC (commonly the least concentration at which growth counts as inhibited) was > 256 µg/mL in the assay with Escherichia coli [1]; 4 µg/mL with Escherichia coli [2]; > 256 µg/mL with Klebsiella pneumoniae [3]; > 256 µg/mL against Klebsiella pneumoniae [4]; > 256 µg/mL in the assay with Escherichia coli [5]; > 256 µg/mL in the assay on Klebsiella pneumoniae [6]. The MIC is > 256 µg/mL against Escherichia coli [7], 4 µg/mL (≈ 10.9 µM) against Escherichia coli [8], > 256 µg/mL in the assay with Escherichia coli [9] and > 256 µg/mL in the assay with Klebsiella pneumoniae [10].

Consider `C[C@H]1[C@H](NC(=O)/C(=N\OC(C)(C)C(=O)O)c2csc(N)n2)C(=O)N1S(=O)(=O)O` [AZTREONAM], for which the MIC was 0.064 µg/mL (≈ 0.147 µM) in the assay on Klebsiella pneumoniae [3], > 256 µg/mL in the assay with Klebsiella pneumoniae [4], 0.064 µg/mL (≈ 0.147 µM) against Escherichia coli [7] and 0.064 µg/mL (≈ 0.147 µM) in the assay with Escherichia coli [9].

For the compound `CO/N=C(\C(=O)N[C@@H]1C(=O)N2C(C(=O)[O-])=C(C[N+]3(C)CCCC3)CS[C@H]12)c1csc(N)n1` [CEFEPIME], the minimal inhibitory concentration (MIC) against Klebsiella pneumoniae [3] amounted to 0.125 µg/mL (≈ 0.26 µM); in the assay on Klebsiella pneumoniae [4] it was 32 µg/mL (≈ 66.6 µM); against Escherichia coli [7] it was 0.125 µg/mL (≈ 0.26 µM); against Escherichia coli [8], 0.03 µg/mL (≈ 0.0624 µM); in the assay with Escherichia coli [9], 0.125 µg/mL (≈ 0.26 µM).

As to `CO/N=C(\C(=O)N[C@@H]1C(=O)N2C(C(=O)O)=C(COC(C)=O)CS[C@H]12)c1csc(N)n1` [CEFOTAXIME], the MIC against Klebsiella pneumoniae [3] is 0.125 µg/mL (≈ 0.274 µM); in the assay with Klebsiella pneumoniae [4], 64 µg/mL (≈ 141 µM); in the assay on Escherichia coli [7] it was 0.38 µg/mL (≈ 0.834 µM); in the assay with Escherichia coli [8], 0.06 µg/mL (≈ 0.132 µM); in the assay with Escherichia coli [9] it was 0.38 µg/mL (≈ 0.834 µM).

As for `CO[C@@]1(NC(=O)Cc2cccs2)C(=O)N2C(C(=O)O)=C(COC(N)=O)CS[C@@H]21` [CEFOXITIN], the minimum inhibitory concentration (MIC) with Klebsiella pneumoniae [3] amounted to 2 µg/mL (≈ 4.68 µM); with Klebsiella pneumoniae [4] it was 128 µg/mL (≈ 299 µM); against Escherichia coli [7], 2 µg/mL (≈ 4.68 µM); with Escherichia coli [8], 2 µg/mL (≈ 4.68 µM); against Escherichia coli [9], 2 µg/mL (≈ 4.68 µM).

As to `CC(C)(O/N=C(\C(=O)N[C@@H]1C(=O)N2C(C(=O)[O-])=C(C[n+]3ccccc3)CS[C@H]12)c1csc(N)n1)C(=O)O` [CEFTAZIDIME], the MIC is 1 µg/mL (≈ 1.83 µM) with Klebsiella pneumoniae [3]; > 256 µg/mL against Klebsiella pneumoniae [4]; 0.75 µg/mL (≈ 1.37 µM) in the assay on Escherichia coli [7]; 0.06 µg/mL (≈ 0.11 µM) against Escherichia coli [8]; 0.75 µg/mL (≈ 1.37 µM) against Escherichia coli [9].

On to `CC(=O)OCC1=C(C(=O)O)N2C(=O)[C@@H](NC(=O)Cc3cccs3)[C@H]2SC1` [CEPHALOTHIN], for which the MIC in the assay with Klebsiella pneumoniae [3] was 16 µg/mL (≈ 40.4 µM); in the assay with Klebsiella pneumoniae [4] it was > 256 µg/mL; against Escherichia coli [7] it was 8 µg/mL (≈ 20.2 µM); with Escherichia coli [8], 4 µg/mL (≈ 10.1 µM); in the assay with Escherichia coli [9], 8 µg/mL (≈ 20.2 µM).

On to `C[C@@H](O)[C@H]1C(=O)N2C(C(=O)O)=C(S[C@@H]3CN[C@H](C(=O)Nc4cccc(C(=O)O)c4)C3)[C@H](C)[C@H]12` [ERTAPENEM], for which the MIC in the assay on Klebsiella pneumoniae [3] was 4 µg/mL (≈ 8.41 µM); in the assay on Klebsiella pneumoniae [4] it was > 32 µg/mL; against Escherichia coli [7], 2 µg/mL (≈ 4.21 µM); in the assay with Escherichia coli [8] it was 0.03 µg/mL (≈ 0.0631 µM); with Escherichia coli [9] it was 2 µg/mL (≈ 4.21 µM). The compound further gave an Activity in assay [11] of 0.04 µmol/min/mg. In addition, the “inhibition zone (IZ)” value with Klebsiella pneumoniae [12] is 18 mm.

As for `C[C@@H](O)[C@H]1C(=O)N2C(C(=O)O)=C(SCCNC=N)C[C@H]12` [IMIPENEM ANHYDROUS], the MIC with Klebsiella pneumoniae [3] was 0.75 µg/mL (≈ 2.51 µM); in the assay on Klebsiella pneumoniae [4], 64 µg/mL (≈ 214 µM); against Escherichia coli [7], 1 µg/mL (≈ 3.34 µM); with Escherichia coli [9] it was 0.75 µg/mL (≈ 2.51 µM). In assay [11], the Activity was determined as 1.6 µmol/min/mg. The “inhibition zone (IZ)” value in the assay with Klebsiella pneumoniae [12] is recorded as 22 mm.

In the case of `C[C@@H](O)[C@H]1C(=O)N2C(C(=O)O)=C(S[C@@H]3CN[C@H](C(=O)N(C)C)C3)[C@H](C)[C@H]12` [MEROPENEM], the MIC was determined as 0.5 µg/mL (≈ 1.3 µM) in the assay on Klebsiella pneumoniae [3]; 64 µg/mL (≈ 167 µM) with Klebsiella pneumoniae [4]; 0.5 µg/mL (≈ 1.3 µM) against Escherichia coli [7]; 0.03 µg/mL (≈ 0.0782 µM) against Escherichia coli [8]; 0.5 µg/mL (≈ 1.3 µM) with Escherichia coli [9]. Besides, in [11], the Activity was determined as 0.05 µmol/min/mg. In the assay on Klebsiella pneumoniae [12], the “inhibition zone (IZ)” value is on record as 23 mm.

Regarding `CCN1CCN(C(=O)N[C@@H](C(=O)N[C@@H]2C(=O)N3[C@@H]2SC(C)(C)[C@@H]3C(=O)O)c2ccccc2)C(=O)C1=O` [PIPERACILLIN], the minimum inhibitory concentration (MIC) in the assay on Klebsiella pneumoniae [3] was 256 µg/mL (≈ 495 µM); against Klebsiella pneumoniae [4], > 256 µg/mL; in the assay on Escherichia coli [13], 1 µg/mL; in the assay on Klebsiella pneumoniae [14], > 256 µg/mL; in the assay with Klebsiella pneumoniae [15] it was 256 µg/mL; in the assay on Escherichia coli [16] it was 128 µg/mL. Further, the minimal inhibitory concentration (MIC) turned out to be 128 µg/mL (≈ 247 µM) with Escherichia coli [7], 1 µg/mL (≈ 1.93 µM) with Escherichia coli [8], 128 µg/mL (≈ 247 µM) against Escherichia coli [9] and 128 µg/mL in the assay with Escherichia coli [17].

With `CC1(C)S[C@@H]2[C@H](NC(=O)[C@H](C(=O)O)c3ccsc3)C(=O)N2[C@H]1C(=O)O` [TICARCILLIN], the MIC was > 256 µg/mL in the assay with Escherichia coli [1]; 2 µg/mL in the assay with Escherichia coli [2]; > 256 µg/mL in the assay on Klebsiella pneumoniae [3]; > 256 µg/mL against Klebsiella pneumoniae [4]; > 256 µg/mL in the assay on Escherichia coli [5]; > 256 µg/mL with Klebsiella pneumoniae [6]. Also, the MIC in the assay with Escherichia coli [7] was > 256 µg/mL; in the assay with Escherichia coli [8], 2 µg/mL (≈ 5.2 µM); against Escherichia coli [9] it was > 256 µg/mL; with Klebsiella pneumoniae [10], > 256 µg/mL.

Regarding `CN(C)c1cc(NC(=O)CNC(C)(C)C)c(O)c2c1C[C@H]1C[C@H]3[C@H](N(C)C)C(O)=C(C(N)=O)C(=O)[C@@]3(O)C(O)=C1C2=O` [TIGECYCLINE], the minimum inhibitory concentration (MIC) worked out at 2 µg/mL (≈ 3.41 µM) against Klebsiella pneumoniae [3]; 1.5 µg/mL (≈ 2.56 µM) with Klebsiella pneumoniae [4]; 0.5 µg/mL (≈ 0.854 µM) in the assay with Escherichia coli [7]; 0.5 µg/mL (≈ 0.854 µM) with Escherichia coli [8]; 0.5 µg/mL (≈ 0.854 µM) with Escherichia coli [9].
